Experimental findings from US6583159B1, “Substitute 1-(piperidin-4-yl)-3-(aryl)-isothioureas, their preparation and therapeutic use” (Pierre Fabre Medicament, priority 1999, dated 2003) are described below.

Data set [1] concerns rat isolated left atrium. Kind of data set: Inhibition of the contraction with veratrine of the rat isolated left atrium. In kind it is cell-based. The settings on record: 10^−7M, veratrine-induced contraction. As for the experimental part: The inhibition of the contraction with veratrine of the rat isolated left atrium was carried out according to the technique of Le Grand et al. (Naunyn-Schmiedebergs Arch. Pharmacol., (1993) 348, p. 184-190). The results are shown in Table I below, where the percentages of the inhibition are given at a concentration of 10^−7M.

The test system of data set [2] is guinea pig perfused isolated heart. Kind of data set: Antiischemic activity, global ischemia in the guinea pig perfused isolated heart. Type of data set: cell-based. The settings on record: Cavia porcellus, 10^−6M, ischemic contraction vs vehicle group. As for the experimental part: The antiischemic activity was measured with regard to the test of the guinea pig perfused isolated heart according to the technique of Le Grand B. et al. (Am. J. Physiol., 269, H533-H540, 1995). The guinea pig hearts are removed, perfused with a modified Krebs solution and the compound to be studied, in solution in water or in a 99/01 water/DMSO mixture (according to solubility), is added after 20 minutes. […], global ischemia is brought about by halting coronary perfusion for 50 min, followed by reperfusion for 1 h. The inhibition of ischemic contraction in the presence of the compound studied is measured with respect to that of the vehicle group. The results are shown in Table II as nonlimiting examples at a concentration of 10^−6M.

The test system of data set [3] is anesthetized rabbit. The experiment in a line: Ischemia-reperfusion in the anesthetized rabbit, oral. In kind it is in vivo. The source says: The compounds of the present invention are also active orally in the test of ischemia-reperfusion in the anesthetized rabbit according to the method of Verscheure et al., (J. Cardiovasc. Pharmacol., 1995, 25, 126-133).

Counter-ions that a name gives are not always drawn.

On to `CS/C(=N\c1ccccc1)N(C)C1CCN(CCCCOc2ccc(C)c(C)c2)CC1.O=C(O)/C=C/C(=O)O`, for which the melting point is 138 to 139 °C.

As for `COc1cc(Cl)ccc1OCCCCN1CCC(N(C)/C(=N/c2ccccc2)SC)CC1.O=C(O)/C=C/C(=O)O`, the melting point was in the range of 106 to 107 °C.

Turning to `CS/C(=N\c1ccccc1F)N(C)C1CCN(CCCCOc2ccc(F)c(F)c2)CC1.O=C(O)/C=C/C(=O)O`, the melting point worked out at 148 °C.

In turn, `CS/C(=N\c1ccc(Cl)cc1)N(C)C1CCN(CCCCOc2ccc(F)c(F)c2)CC1.O=C(O)/C=C/C(=O)O` showed a melting point of 130 °C.

For the molecule `CS/C(=N\c1ccc(C)cc1)N(C)C1CCN(CCCCOc2ccc(F)c(F)c2)CC1.O=C(O)/C=C/C(=O)O`, the melting point stood at 141 °C.

Molecule `COc1ccc(/N=C(\SC)N(C)C2CCN(CCCCOc3ccc(F)c(F)c3)CC2)cc1.O=C(O)/C=C/C(=O)O` had a melting point of 130 °C.

`CS/C(=N\c1c(C)cccc1C)N(C)C1CCN(CCCCOc2ccc(F)c(F)c2)CC1.O=C(O)/C=C/C(=O)O` came in with a melting point of 129 °C.

Regarding `CS/C(=N\c1c(C(C)C)cccc1C(C)C)N(C)C1CCN(CCCCOc2ccc(F)c(F)c2)CC1.O=C(O)/C=C/C(=O)O`, the melting point came to 194 °C.

With `CS/C(=N\c1cccc(F)c1)N(C)C1CCN(CCCCOc2ccc(F)c(F)c2)CC1.O=C(O)/C=C/C(=O)O`, the melting point is 133 °C.

In turn, `CCS/C(=N\c1ccccc1)N(C)C1CCN(CCCCOc2ccc(F)c(F)c2)CC1.O=C(O)/C=C/C(=O)O` showed a melting point of 151 to 152 °C.

As for `CS/C(=N\c1ccc([N+](=O)[O-])cc1)N(C)C1CCN(CCCCOc2ccc(F)c(F)c2)CC1.O=C(O)/C=C/C(=O)O`, the melting point stood at 132 °C.

Consider `CS/C(=N\c1ccccc1)N(C)C1CCN(CCCOCCc2ccc(F)cc2)CC1.O=C(O)/C=C/C(=O)O`, for which the melting point is 110 to 111 °C.

For the molecule `CS/C(=N\c1ccccc1)N(CC(C)C)C1CCN(CCCCOc2ccc(F)c(F)c2)CC1.O=C(O)/C=C/C(=O)O`, the melting point lay within 131 to 132 °C.

`CS/C(=N\c1ccccc1)N(C)C1CCN(CCCCCOc2ccc(F)c(F)c2)CC1.O=C(O)/C=C/C(=O)O`: the melting point is 129 to 130 °C.

With `CS/C(=N\c1ccccc1)N(C)C1CCN(CCCOc2ccc(F)c(F)c2)CC1.O=C(O)/C=C/C(=O)O`, the melting point was 106 to 107 °C.

For `CS/C(=N\c1ccccc1)N(C)C1CCN(CCCCOc2ccc(F)cc2)CC1.O=C(O)/C=C/C(=O)O`, the melting point lay within 133 to 134 °C.

As for `CS/C(=N\c1ccccc1)N(C)C1CCN(CCOc2ccc(F)cc2)CC1.O=C(O)/C=C/C(=O)O`, the melting point was found to be 120 °C.

In turn, `COc1ccc(OCCCCN2CCC(N(C)/C(=N/c3ccccc3)SC)CC2)cc1.O=C(O)/C=C/C(=O)O` returned a melting point of 120 °C.

Molecule `CS/C(=N\c1ccccc1)N(C)C1CCN(CCCCOc2ccc(F)c(F)c2)CC1.O=C(O)/C=C/C(=O)O` [Example 1, 1,2-Dimethyl-3-phenyl-1-[1-[4-(3,4-difluorophenoxy)butyl]piperidin-4-yl]isothiourea hydrogen fumarate] registered a melting point of 151 to 152 °C. The inhibition at 0.1 µM in data set [1] was determined as 28%. In data set [2], this molecule showed an inhibition at 1 µM of 69%. In data set [3] (0.63 mg/kg p.o.), the “% arterial pressure variation” value is listed as −3%, the “% heart rate variation” value was determined as 5%, the “% inhibition with regard to ST-segment elevation” value (“% inhibition with regard” for short) was determined as 58% and the “Number of animals exhibiting reperfusion arrhythmias” value (“Number” for short) is 1/5.

`CCN(/C(=N/c1ccccc1)SC)C1CCN(CCCCOc2ccc(F)c(F)c2)CC1.O=C(O)/C=C/C(=O)O` [Example 3, 1-Ethyl-1-[1-[4-(3,4-difluorophenoxy)butyl]piperidin-4-yl]-2-methyl-3-phenylisothiourea hydrogen fumarate] showed a melting point of 120 to 121 °C. Also, testing at 0.1 µM in data set [1] gave an inhibition of 32%.

Take `CS/C(=N\c1ccc(F)cc1)N(C)C1CCN(CCCCOc2ccc(F)c(F)c2)CC1.O=C(O)/C=C/C(=O)O` [Example 13, 1,2-Dimethyl-1-[1-[4-(3,4-difluorophenoxy)butyl]piperidin-4-yl]-3-(4-fluorophenyl)isothiourea hydrogen fumarate]: the melting point turned out to be 125 °C. The molecule further gave an inhibition at 0.1 µM in data set [1] of 34%.

In data set [1], `CS/C(=N\c1c(F)cccc1F)N(C)C1CCN(CCCCOc2ccc(F)c(F)c2)CC1` [Example 21, 1,2-Dimethyl-1-[1-[4-(3,4-difluorophenoxy)butyl]piperidin-4-yl]-3-(2,6-difluorophenyl)isothiourea hydrogen fumarate] yielded an inhibition at 0.1 µM of 31%. The inhibition at 1 µM in data set [2] worked out at 53%.

For `CN(C1=Nc2ccccc2CS1)C1CCN(CCCCOc2ccc(F)c(F)c2)CC1` [PF Control, N-[1-[4-(3,4-Difluorophenoxy)butyl]piperidin-4-yl]-N-methyl-4H-3,1-benzothiazin-2-amine], the inhibition at 0.1 µM in data set [1] was 25%. Besides, testing at 1 µM in data set [2] gave an inhibition of 48%. For the same molecule, in data set [3] (0.63 mg/kg p.o.), the “% arterial pressure variation” value came out at 9%, the “% heart rate variation” value was 9%, the “% inhibition with regard” value stood at 33% and the “Number” value is 1/5.

With `CN(c1nc2ccccc2s1)C1CCN(CCCCOc2ccc(F)cc2)CC1` [R 56865, N-(1-(4-(4-Fluorophenoxy)butyl)piperidin-4-yl)-N-methyl-2-benzothiazolamine], 0.1 µM produced 33% inhibition in data set [1]. Also, in data set [3] (2.5 mg/kg p.o.), the “% arterial pressure variation” value came to 27%, the “% heart rate variation” value is recorded as 0%, the “% inhibition with regard” value is on record as 0% and the “Number” value is listed as 2/5.
